Molecular target: Epidermal growth factor receptor (Homo sapiens, UniProt P00533)
Test: EGFR Kinase Assay
Experimental: For the assay 50 nL of a 100 fold concentrated solution of the test compound in DMSO was pipetted into a black low volume 384 well microtiter plate (Greiner Bio-One, Frickenhausen, Germany), 2 μL of a solution of EGFR in aqueous assay buffer [50 mM Hepes/HCl pH 7.0, 1 mM MgCl2, 5 mM MnCl2, 0.5 mM activated sodium ortho-vanadate, 0.005% (v/v) Tween-20]were added and the mixture was incubated for 15 min at 22° C. to allow pre-binding of the test compounds to the enzyme before the start of the kinase reaction. […] The concentration of EGFR was adjusted depending of the activity of the enzyme lot and was chosen appropriate to have the assay in the linear range, typical concentration were about 3 U/ml. The reaction was stopped by the addition of 5 μl of a solution of HTRF detection reagents (0.1 μM streptavidine-XL665 [Cis Biointernational] and 1 nM PT66-Tb-Cryptate, an terbium-cryptate labelled anti-phospho-tyrosine antibody from Cis Biointernational [instead of the PT66-Tb-cryptate PT66-Eu-Chelate from Perkin Elmer can also be used]) in an aqueous EDTA-solution (80 mM EDTA, 0.2% (w/v) bovine serum albumin in 50 mM HEPES pH 7.5).The resulting mixture was incubated 1 h at 22° C. to allow the binding of the biotinylated phosphorylated peptide to the streptavidine-XL665 and the PT66-Eu-Chelate. Subsequently the amount of phosphorylated substrate was evaluated by measurement of the resonance energy transfer from the PT66-Tb-Cryptate to the streptavidine-XL665.

Sequence of Epidermal growth factor receptor (P00533 whole entry): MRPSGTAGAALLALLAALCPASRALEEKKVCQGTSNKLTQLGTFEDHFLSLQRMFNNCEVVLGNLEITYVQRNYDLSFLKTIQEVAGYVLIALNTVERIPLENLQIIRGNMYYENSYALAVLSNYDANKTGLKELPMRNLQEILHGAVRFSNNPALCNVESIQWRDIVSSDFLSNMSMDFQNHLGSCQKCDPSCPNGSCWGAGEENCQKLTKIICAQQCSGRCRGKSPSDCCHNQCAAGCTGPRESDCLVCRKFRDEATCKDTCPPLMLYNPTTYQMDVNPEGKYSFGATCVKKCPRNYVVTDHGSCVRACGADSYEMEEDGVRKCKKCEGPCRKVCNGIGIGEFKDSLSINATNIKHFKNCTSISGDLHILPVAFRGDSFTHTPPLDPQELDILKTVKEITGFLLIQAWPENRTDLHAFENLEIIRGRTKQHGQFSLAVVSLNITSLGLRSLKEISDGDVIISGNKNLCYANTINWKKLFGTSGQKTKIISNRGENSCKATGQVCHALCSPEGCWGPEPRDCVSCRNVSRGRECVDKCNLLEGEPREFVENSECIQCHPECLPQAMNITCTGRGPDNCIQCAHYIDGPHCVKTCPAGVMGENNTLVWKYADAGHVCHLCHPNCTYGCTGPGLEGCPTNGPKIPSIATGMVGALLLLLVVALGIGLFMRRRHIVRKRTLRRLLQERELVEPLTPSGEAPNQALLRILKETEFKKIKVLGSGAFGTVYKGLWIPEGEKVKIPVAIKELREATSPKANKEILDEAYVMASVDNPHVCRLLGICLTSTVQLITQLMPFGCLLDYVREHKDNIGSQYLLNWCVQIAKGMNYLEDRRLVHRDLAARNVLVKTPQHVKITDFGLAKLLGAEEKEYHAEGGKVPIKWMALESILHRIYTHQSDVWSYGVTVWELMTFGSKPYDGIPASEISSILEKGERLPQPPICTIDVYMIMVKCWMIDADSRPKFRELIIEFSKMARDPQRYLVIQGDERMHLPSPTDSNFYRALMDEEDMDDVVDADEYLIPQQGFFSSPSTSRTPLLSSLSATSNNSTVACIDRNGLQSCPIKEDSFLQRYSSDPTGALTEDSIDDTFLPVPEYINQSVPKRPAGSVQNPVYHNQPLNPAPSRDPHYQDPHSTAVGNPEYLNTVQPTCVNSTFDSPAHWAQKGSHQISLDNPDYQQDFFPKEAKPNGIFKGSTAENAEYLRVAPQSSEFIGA

Row | SMILES | IC50
1 | COc1cc2nc(C)nc(NC(C)c3ccc(-c4ccccc4CNCC(N)=O)s3)c2cc1OC (stereo unspecified) [US20240083857, Example 279] | > 20 µM
2 | Cc1nc(N[C@H](C)c2ccc(F)cc2)c2cc(Br)ccc2n1 [US20240083857, Example 31] | > 20 µM
3 | CNC(=O)CNCc1ccccc1-c1ccc(C(C)Nc2nc(C)nc3cc(OC)c(OC)cc23)s1 (stereo unspecified) [US20240083857, Example 282] | > 20 µM
4 | Cc1nc(NC(C)c2ccc(-c3ccccc3CN(C)C)s2)c2cc(N3CCCC3)ccc2n1 (stereo unspecified) [US20240083857, Example 415] | > 20 µM
5 | COc1cc2nc(C)nc(N[C@H](C)c3cc4cccc(OC)c4o3)c2cc1OC [US20240083857, Example 33] | > 20 µM
6 | Cc1nc(N[C@H](C)c2ccccc2)c2cc(Br)ccc2n1 [US20240083857, Example 29] | > 20 µM
7 | COCCNC(=O)CNCc1ccccc1-c1ccc(C(C)Nc2nc(C)nc3cc(OC)c(OC)cc23)s1 (stereo unspecified) [US20240083857, Example 283] | > 20 µM
8 | COc1cc2nc(C)nc(NC(C)c3ccc(-c4ccccc4CNCC(=O)N(C)C)s3)c2cc1OC (stereo unspecified) [US20240083857, Example 280] | > 20 µM
9 | COc1cc2nc(C)nc(NC(C)c3ccc(-c4ccccc4CNCC(=O)Nc4ccccc4)s3)c2cc1OC (stereo unspecified) [US20240083857, Example 289] | > 20 µM
10 | COc1cc2nc(C)nc(NC(C)c3ccc(-c4ccccc4CNCC(=O)NCc4ccccc4)s3)c2cc1OC (stereo unspecified) [US20240083857, Example 284] | > 20 µM
11 | COc1cc2nc(C)nc(N[C@H](C)c3ccc(C#N)cc3)c2cc1OC [US20240083857, Example 189] | > 20 µM
